These results are taken from publication PMC11314561, “Design and Synthesis of Novel Aminoindazole-pyrrolo[2,3-b]pyridine Inhibitors of IKKα That Selectively Perturb Cellular Non-Canonical NF-κB Signalling” (Molecules, 2024).

Common to all, as to assay: kinase panel
Common to all, as to assay type: biochemical

One assay addresses CDK2/cyclinA(h) (Homo sapiens, UniProt P24941). Summed up:
(§1)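 % inhibition read-out; kinome panel of 231 kinases; one analogue run on a selected 98-kinase subset only.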

The next assay deals with CDK2/cyclinE(h) (Homo sapiens, UniProt P24941). Summed up:
as §1

The target in a further assay is T1, Flt3(h) (Homo sapiens, UniProt P36888).
T1 sequence (P36888 27-993): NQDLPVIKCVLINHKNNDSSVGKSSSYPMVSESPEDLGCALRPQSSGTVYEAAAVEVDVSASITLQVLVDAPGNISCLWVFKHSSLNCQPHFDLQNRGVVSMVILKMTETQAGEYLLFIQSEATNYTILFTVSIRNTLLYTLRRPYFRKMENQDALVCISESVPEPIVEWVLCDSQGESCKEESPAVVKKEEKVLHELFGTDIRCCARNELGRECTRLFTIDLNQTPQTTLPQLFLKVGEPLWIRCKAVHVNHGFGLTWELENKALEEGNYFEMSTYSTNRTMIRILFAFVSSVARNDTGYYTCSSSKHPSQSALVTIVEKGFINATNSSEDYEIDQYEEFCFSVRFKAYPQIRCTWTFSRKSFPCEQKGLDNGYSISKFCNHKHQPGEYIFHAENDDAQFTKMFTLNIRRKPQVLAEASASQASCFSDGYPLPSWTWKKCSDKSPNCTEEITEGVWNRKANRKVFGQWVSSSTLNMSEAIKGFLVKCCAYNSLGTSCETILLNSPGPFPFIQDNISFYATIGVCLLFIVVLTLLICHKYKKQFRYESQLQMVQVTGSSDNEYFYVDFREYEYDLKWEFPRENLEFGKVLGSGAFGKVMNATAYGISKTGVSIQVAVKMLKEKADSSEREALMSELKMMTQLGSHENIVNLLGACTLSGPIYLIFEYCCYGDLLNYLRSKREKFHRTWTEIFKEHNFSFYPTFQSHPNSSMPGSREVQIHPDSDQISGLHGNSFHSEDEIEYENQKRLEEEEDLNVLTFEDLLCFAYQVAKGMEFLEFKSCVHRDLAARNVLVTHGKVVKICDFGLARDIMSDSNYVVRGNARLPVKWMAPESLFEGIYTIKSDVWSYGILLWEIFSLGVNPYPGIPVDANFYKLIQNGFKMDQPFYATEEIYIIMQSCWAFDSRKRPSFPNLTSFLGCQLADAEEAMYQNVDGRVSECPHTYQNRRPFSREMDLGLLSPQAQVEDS
Summed up: as §1

The target in another assay is T2, MST2(h) (Homo sapiens, UniProt Q13188).
T2 sequence (Q13188 1-491): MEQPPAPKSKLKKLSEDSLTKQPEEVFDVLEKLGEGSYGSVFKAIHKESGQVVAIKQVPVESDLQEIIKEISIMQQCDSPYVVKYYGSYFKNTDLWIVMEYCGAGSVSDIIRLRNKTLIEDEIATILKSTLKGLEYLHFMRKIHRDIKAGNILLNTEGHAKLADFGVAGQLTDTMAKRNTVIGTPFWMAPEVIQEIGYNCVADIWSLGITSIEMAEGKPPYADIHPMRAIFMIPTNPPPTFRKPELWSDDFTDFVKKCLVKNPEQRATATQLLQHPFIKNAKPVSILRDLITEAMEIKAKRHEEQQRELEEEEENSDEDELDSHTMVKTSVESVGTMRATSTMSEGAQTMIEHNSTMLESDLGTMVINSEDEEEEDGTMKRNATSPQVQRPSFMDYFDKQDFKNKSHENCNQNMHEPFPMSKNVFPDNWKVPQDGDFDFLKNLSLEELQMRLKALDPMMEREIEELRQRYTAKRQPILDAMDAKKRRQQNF
Summed up: as §1

The target of a further assay is PAR-1Bα(h) (Homo sapiens, UniProt Q7KZI7). Summed up: as §1
The target of another assay is PKCη(h) (Homo sapiens, UniProt P24723). Summed up: as §1
The target in a further assay is T3, SGK(h) (Homo sapiens, UniProt O00141).
T3 sequence (O00141 1-431): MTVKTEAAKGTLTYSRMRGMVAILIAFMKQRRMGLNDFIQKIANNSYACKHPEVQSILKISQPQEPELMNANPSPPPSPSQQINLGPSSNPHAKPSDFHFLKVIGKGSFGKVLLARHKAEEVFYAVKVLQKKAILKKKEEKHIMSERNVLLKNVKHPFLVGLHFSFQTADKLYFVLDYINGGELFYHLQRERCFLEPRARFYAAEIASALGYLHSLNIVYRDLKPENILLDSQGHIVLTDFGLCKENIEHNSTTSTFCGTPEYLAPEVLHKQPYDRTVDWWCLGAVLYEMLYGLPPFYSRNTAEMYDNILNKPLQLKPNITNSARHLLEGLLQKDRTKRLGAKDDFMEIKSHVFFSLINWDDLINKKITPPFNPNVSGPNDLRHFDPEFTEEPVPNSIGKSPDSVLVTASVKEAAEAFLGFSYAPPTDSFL
Summed up:
as §1

The next assay has as its target c-RAF(h) (Homo sapiens, UniProt P04049). Summed up: as §1

Sequence of PKCη(h) (P24723 whole entry): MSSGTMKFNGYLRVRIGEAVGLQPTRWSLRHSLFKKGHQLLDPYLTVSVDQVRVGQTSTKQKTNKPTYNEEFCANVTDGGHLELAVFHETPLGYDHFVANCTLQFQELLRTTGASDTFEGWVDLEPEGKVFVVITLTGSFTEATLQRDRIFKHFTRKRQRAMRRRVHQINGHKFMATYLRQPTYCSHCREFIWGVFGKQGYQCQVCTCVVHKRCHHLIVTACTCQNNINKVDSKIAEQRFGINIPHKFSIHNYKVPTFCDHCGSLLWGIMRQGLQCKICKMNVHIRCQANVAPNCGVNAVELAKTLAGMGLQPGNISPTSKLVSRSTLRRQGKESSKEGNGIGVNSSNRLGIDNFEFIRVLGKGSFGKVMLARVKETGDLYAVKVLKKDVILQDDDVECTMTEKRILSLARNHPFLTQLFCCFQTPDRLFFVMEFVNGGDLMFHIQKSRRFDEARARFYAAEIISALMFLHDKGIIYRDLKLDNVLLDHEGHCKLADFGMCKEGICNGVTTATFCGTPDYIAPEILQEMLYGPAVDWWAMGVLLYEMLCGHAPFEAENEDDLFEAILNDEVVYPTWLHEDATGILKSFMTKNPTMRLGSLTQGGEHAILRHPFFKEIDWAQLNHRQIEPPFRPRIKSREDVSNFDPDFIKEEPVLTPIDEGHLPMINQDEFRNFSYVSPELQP
Sequence of PAR-1Bα(h) (Q7KZI7 whole entry): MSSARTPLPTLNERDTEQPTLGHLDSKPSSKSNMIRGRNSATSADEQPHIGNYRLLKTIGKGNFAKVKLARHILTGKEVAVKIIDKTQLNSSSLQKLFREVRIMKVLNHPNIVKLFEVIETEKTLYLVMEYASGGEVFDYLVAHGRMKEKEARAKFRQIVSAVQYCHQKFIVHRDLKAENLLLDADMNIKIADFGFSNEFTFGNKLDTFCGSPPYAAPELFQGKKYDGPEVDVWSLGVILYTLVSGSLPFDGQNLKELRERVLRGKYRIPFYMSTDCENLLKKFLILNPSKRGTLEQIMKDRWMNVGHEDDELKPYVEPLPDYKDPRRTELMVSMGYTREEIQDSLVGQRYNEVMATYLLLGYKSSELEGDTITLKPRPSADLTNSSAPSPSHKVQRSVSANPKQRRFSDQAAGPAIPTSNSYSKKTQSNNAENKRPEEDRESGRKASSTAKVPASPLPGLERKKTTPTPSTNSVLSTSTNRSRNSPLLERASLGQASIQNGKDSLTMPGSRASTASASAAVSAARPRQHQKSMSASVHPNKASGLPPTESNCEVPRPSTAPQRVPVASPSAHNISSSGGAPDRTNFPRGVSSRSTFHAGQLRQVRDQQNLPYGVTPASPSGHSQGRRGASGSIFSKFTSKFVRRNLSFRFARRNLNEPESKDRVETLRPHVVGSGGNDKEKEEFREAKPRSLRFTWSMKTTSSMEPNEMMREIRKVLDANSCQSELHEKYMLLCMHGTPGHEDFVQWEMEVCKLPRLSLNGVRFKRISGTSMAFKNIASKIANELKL
Sequence of c-RAF(h) (P04049 whole entry): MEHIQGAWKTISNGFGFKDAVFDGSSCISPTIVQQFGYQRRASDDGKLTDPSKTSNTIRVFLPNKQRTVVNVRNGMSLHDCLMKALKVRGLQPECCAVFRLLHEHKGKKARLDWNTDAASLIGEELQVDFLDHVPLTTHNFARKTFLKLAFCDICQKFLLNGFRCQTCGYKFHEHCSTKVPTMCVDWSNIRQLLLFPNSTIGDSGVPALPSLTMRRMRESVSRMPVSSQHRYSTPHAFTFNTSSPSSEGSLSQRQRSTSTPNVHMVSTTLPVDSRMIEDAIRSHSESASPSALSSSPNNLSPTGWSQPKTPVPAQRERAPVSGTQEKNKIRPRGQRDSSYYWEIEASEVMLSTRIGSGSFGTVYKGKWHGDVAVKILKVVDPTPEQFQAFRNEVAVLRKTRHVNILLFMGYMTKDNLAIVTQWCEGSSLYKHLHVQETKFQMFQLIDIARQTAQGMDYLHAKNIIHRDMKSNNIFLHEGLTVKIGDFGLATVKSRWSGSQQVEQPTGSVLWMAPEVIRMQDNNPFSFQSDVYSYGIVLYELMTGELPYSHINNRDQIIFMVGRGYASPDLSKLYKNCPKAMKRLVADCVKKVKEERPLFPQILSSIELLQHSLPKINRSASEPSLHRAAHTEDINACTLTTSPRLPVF

Take `Nc1n[nH]c2ccc(-c3ccnc4[nH]c(-c5ccccc5)cc34)cc12` [Compound 4]: the inhibition at 1 µM on CDK2/cyclinA(h) was found to be 99%; against CDK2/cyclinE(h), 86%; against Flt3(h), 102%; on MST2(h), 5%; against PAR-1Bα(h) it was 86%; on PKCη(h) it was 2%. Also, the values for the inhibition at 1 µM at SGK(h) and against c-RAF(h) were 15% and 29%, respectively.
As for `Nc1n[nH]c2ccc(-c3ccnc4[nH]c(-c5cccc(OCc6ccccc6)c5)cc34)cc12` [Compound 5r [SU1261]], the inhibition at 1 µM at CDK2/cyclinA(h) was 61%; against CDK2/cyclinE(h) it was 37%; at Flt3(h), 46%; on MST2(h), -1%; on PAR-1Bα(h), 29%; at PKCη(h), 2%. Moreover, the figures for the inhibition at 1 µM at SGK(h) and against c-RAF(h) were -10% and 20%, respectively.
Turning to `Nc1n[nH]c2ccc(-c3ccnc4[nH]c(-c5ccnc(OCc6ccccc6)c5)cc34)cc12` [Compound 6g [SU1349]], the inhibition at 1 µM at CDK2/cyclinA(h) is 37%; against CDK2/cyclinE(h), 29%; against Flt3(h) it was 36%; against MST2(h), 4%; at PAR-1Bα(h), 20%; at PKCη(h), -1%. Further, the inhibition at 1 µM against SGK(h) turned out to be 22%; at c-RAF(h) it was 2%.

By inhibition is commonly meant the change of the read-out against control, counted positive when it falls.
